This is an account of results in patent US20070021357A1, “Treatment of inflammatory conditions” (Dynamis Therapeutics, Inc., priority 2005, published 2007).

Data set [1] deals with T1, Calf skin collagen Type I (Bos taurus, UniProt P02453+P02465).
T1 construct: Calf skin collagen Type I (1.3 mg; Sigma); purchased Sigma; host or cells: calf skin
Kind of data set: 3DG-induced collagen crosslinking, CNBr digestion and SDS-PAGE. Format: biochemical. The following applies: 37° C., 24 hours. As to the method:
Collagen type I was treated with 3DG in the presence or absence of arginine. The samples were subjected to cyanogen bromide (CNBr) digestion, electrophoresed on a 16.5% SDS Tris-tricine gel, and then the gels were processed using silver stain techniques to visualize the proteins. Lane 1 contains molecular weight marker standards. Lanes 2 and 5 contain 10 and 20 μl of the collagen mixture following CNBr digestion. Lanes 3 and 6 contain the collagen mixture treated with 3DG and then digested with CNBr, and loaded at 10 and 20 μl, respectively. Lanes 4 and 7 contain the mixture of collagen incubated with 5 mM 3DG and 10 mM arginine and then digested with CNBr, and loaded at 10 and 20 μl, respectively.
Collagen I was incubated in the presence or absence of 3DG in vitro. Calf skin collagen Type I (1.3 mg; Sigma) was incubated in 20 mM Na-phosphate buffer, pH 7.25, either alone, with 5 mM 3DG, or with 5 mM 3DG plus 10 mM arginine, in a total volume of 1 ml at 37° C. for 24 hours and then frozen and lyophilized. The residue was dissolved in 0.5 ml of 70% formic acid and cyanogen bromide was added (20:1, w/w). This solution was incubated at 30° C. for 18 hours. […] The extent of collagen crosslinking was determined by applying equal volumes of sample and analyzing by SDS-PAGE electrophoresis (16.5% Tris-tricine gel), as determined by the effects of 3DG on the migration of collagen.

Details of data set [2]: species or system human. The following applies: in vivo. The procedure:
260 g of casein, 120 g of glucose and 720 ml of water were mixed to give a homogeneous mixture. This mixture was transferred to a metal plate and heated at 65° C. for 68 hours. The resulting cake was then pulverized to a coarse powder.
Volunteers spent two days on a fructoselysine-free diet and then consumed 22.5 g of the food product prepared as described herein, thus effectively receiving a 2 gram dose of fructoselysine. Urine was collected at 2 hour intervals for 14 hours and a final collection was made at 24 hours.
FL was measured by HPLC with a Waters 996 diode Array using a Waters C18 Free Amino Acid column at 46° C. and a gradient elution system of acetonitrile-methyl alcohol-water (45:15:40) into acetonitrile-sodium acetate-water (6:2:92) at 1 ml/min. Quantitation employed an internal standard of meglumine.
3DF was measured by HPLC after deionization of the sample. Analyses were performed on a Dionex DX-500 HPLC system employing a PA1 column (Dionex) and eluting with 32 mM sodium hydroxide at 1 ml/min. Quantitation was performed from standard curves obtained daily with synthetic 3DF.
3DG was measured by GC-MS after deionization of the sample. 3DG was derivatized with a 10-fold excess of diaminonaphthalene in PBS. […] Quantitation of 3DG employed selected ion monitoring using an internal standard of U-13C-3DG.

Data set [3] has as its system kinase activity in the kidney cortex. Kind of data set: Radioactive assay of FL3P production from FL and ATP. Format: biochemical, pig. The following applies: 10 mM FL, 10 mM γ33P-ATP, 30 minutes at 37° C., pH 7.5. As to the method:
A 3 g sample of fresh pig kidney cortex was homogenized in 9 ml of 50 mM Tris.HCl containing 150 mM KCl, 5 mM DTT, 15 mM MgCl2, pH 7.5. This was centrifuged at 10,000 g for 30 minutes, and then the supernatant was centrifuged at 100,000 g for 60 minutes. Ammonium sulfate was added to 60% saturation. After 1 hour at 4° C. the precipitate was collected by centrifugation and dissolved in 5 ml. of original buffer. A 2 ml aliquot of this solution was incubated with 10 mM ATP and 10 mM of FL (prepared as in Example 1, above) for 2 hours at 37° C. The reaction was quenched with 300 μl of perchloric acid, centrifuged to remove protein, and desalted on a column of Sephadex G 10 (5×10 cm). ^31P NMR analysis of the reaction mixture detected formation of FL3P.
Based on the proof of kinase activity thus obtained, a radioactive assay was developed. This assay was designed to take advantage of the binding to Dow-50 cation exchange resin by FL3P. This characteristic of FL3P was discovered during efforts to isolate it. […] A 0.5 ml volume of supernatant was pipetted into 10 ml of Ecoscint A and counted. […] The relationship between rates of FL3P production and enzyme concentration was determined using triplicate determinations with 1, 2, and 4 mg of protein for 30 minutes at 37° C. Blanks run concurrently without FL were subtracted and the data recorded. […]

For data set [4], the system named is mouse mesangial cells. Put plainly: Type IV collagen production in kidney cells in vitro. Format: cell-based. As to the method:
Type IV collagen production was measured in mouse mesangial cells. Controls (grown with […]) produced 300 ng of Type IV collagen per 10,000 cells, whereas fructoselysine treated cells (5 or 10 mM fructoselysine with 10 mM glucose) produced 560 and 1100 ng/10,000 cells.

Data set [5] deals with amadorase. Put plainly: Amadorase-dependent production of 3DG in vitro. Format: biochemical. The following applies: FL 2.6 mM, after 24 hours.
For data set [6], the system named is 3-deoxyglucosone. Put plainly: Reduction of urinary and plasma 3-deoxyglucosone in rats after intraperitoneal injection. Format: in vivo. Conditions: 10 μmols intraperitoneal, plasma at end of three hours vs before. The procedure:
Urine was collected from six rats for three hours. A plasma sample was also obtained. The animals were then given 10 μmols of either sorbitollysine, mannitollysine, or galactitollysine by intraperitoneal injection. Urine was collected for another three hours, and a plasma sample obtained at the end of the three hours.
a. 3-deoxyglucosone was measured in the samples, as described in Example 5, below, and variable volumes were normalized to creatinine. The average reduction of urinary 3-deoxyglucosone was 50% by sorbitollysine, 35% by mannitollysine and 35% by galactitollysine. Plasma 3-deoxyglucosone was reduced 40% by sorbitollysine, 58% by mannitollysine and 50% by galactitollysine.
Three rats were treated as in b), immediately above, except meglumine (100 μmols) was injected intraperitoneally instead of the above-mentioned lysine derivatives. Three hours after the injection the average 3-deoxyglucosone concentrations in the urine were decreased 42%.
3DG was measured by GC-MS after deionization of the sample. 3DG was derivatized with a 10-fold excess of diaminonaphthalene in PBS. Ethyl acetate extraction gave a salt free fraction which was converted to the trimethyl silyl ethers with Tri-Sil (Pierce). Analysis was performed on a Hewlett-Packard 5890 selected ion monitoring GC-MS system. GC was performed on a fused silica capillary column (DB-5.25 mx.25 mm) using the following temperature program: injector port 250° C., initial column temperature 150° C. which is held for 1 minute, then increased to 290° C. at 16° C./minute and held for 15 minutes. Quantitation of 3DG employed selected ion monitoring using an internal standard of U-13C-3DG.

Data set [7] deals with 3DG. Conditions: disclosed in WO 98/33492; cited from earlier work.

T1 sequence (P02453 162-1217 limits assumed): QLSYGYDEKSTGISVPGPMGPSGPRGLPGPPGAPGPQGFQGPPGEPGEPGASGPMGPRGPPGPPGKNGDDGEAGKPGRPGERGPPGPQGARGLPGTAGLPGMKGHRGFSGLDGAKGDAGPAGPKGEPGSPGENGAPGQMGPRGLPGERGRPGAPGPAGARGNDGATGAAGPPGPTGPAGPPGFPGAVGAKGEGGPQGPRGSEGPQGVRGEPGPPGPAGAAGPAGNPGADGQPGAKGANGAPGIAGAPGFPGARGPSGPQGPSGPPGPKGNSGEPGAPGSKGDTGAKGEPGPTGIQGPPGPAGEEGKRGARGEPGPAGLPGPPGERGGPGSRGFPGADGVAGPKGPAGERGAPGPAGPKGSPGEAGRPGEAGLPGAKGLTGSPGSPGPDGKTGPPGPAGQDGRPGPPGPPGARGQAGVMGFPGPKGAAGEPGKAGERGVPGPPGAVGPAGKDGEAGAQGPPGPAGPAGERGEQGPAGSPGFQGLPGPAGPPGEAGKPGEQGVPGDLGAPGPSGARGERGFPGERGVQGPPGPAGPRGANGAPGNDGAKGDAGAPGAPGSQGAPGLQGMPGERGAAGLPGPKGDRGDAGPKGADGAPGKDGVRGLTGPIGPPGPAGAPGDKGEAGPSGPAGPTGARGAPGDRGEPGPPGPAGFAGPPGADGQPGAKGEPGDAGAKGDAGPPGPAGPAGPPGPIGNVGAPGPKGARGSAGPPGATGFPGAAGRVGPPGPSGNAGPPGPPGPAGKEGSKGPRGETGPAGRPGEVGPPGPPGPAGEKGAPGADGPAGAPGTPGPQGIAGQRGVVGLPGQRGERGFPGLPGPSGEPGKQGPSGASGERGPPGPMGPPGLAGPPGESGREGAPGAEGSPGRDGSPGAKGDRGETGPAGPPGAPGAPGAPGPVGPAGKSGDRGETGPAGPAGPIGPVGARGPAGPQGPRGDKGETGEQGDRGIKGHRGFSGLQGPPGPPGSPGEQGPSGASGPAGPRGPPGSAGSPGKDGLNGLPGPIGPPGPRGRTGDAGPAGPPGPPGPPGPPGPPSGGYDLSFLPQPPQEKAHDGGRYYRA
T1 sequence (P02465 80-1117 limits assumed): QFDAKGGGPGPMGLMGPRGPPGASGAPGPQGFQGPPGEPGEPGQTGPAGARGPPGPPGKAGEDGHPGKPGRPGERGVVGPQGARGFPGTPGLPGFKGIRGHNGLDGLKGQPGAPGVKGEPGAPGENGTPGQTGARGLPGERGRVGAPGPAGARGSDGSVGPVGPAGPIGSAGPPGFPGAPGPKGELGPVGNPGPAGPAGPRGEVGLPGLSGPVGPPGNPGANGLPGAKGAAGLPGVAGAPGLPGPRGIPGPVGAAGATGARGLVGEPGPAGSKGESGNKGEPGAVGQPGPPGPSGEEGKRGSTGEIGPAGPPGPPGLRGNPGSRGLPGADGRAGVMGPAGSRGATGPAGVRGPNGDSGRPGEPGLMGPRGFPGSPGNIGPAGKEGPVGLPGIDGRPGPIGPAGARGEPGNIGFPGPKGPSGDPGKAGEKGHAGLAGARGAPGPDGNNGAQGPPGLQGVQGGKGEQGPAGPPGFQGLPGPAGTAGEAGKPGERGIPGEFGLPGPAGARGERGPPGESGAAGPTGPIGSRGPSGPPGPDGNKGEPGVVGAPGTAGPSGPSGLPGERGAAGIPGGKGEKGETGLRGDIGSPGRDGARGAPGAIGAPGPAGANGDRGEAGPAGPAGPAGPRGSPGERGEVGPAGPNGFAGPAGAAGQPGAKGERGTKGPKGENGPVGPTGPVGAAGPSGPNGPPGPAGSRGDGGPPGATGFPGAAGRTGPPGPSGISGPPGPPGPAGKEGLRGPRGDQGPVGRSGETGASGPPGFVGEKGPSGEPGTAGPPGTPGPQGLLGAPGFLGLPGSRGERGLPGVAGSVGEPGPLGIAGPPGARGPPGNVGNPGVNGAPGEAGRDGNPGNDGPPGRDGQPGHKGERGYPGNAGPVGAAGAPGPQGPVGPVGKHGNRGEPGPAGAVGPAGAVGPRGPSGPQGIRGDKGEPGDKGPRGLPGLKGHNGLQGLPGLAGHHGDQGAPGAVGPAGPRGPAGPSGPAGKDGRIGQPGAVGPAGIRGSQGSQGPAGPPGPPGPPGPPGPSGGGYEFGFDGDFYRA

Take `O=CC(=O)C[C@H](O)[C@H](O)CO` [3DG, 3-deoxyglucosone, reference compound]: the “collagen crosslinking (migration of collagen on gel)” value in data set [1] (collagen I with 5 mM 3DG) is listed as “migrate as if it had a higher molecular weight”.

As for `NC(CCCCNCC(=O)C(O)C(O)C(O)CO)C(=O)O` (stereo not drawn) [FL, 1-deoxy-1-(ε-aminolysine)-fructose], the “time of peak urinary 3DF excretion after the bolus” value in data set [2] was “about 4 hours”. In addition, the “approximate FL3P synthesis rate” value in data set [3] is listed as about 20 nmols/hr/mg protein. In addition, the results for the “Type IV collagen produced” value in data set [4] (5 mM fructoselysine with 10 mM glucose) and in data set [4] (10 mM fructoselysine with 10 mM glucose) were 560 ng/10,000 cells and 1100 ng/10,000 cells, respectively. Besides, the “3DG” value in data set [5] (Reaction 1: Amadorase +, ATP +) came out at 1.58 mM; in data set [5] (Reaction 2: Amadorase +, ATP −), 0.08 mM; in data set [5] (Reaction 3: Amadorase −, ATP +), 0.09 mM; in data set [5] (Reaction 4: Amadorase −, ATP −) it was 0.08 mM. In addition, the “FL3P” value stood at 0.2 mM in data set [5] (Reaction 1: Amadorase +, ATP +); 0 mM in data set [5] (Reaction 2: Amadorase +, ATP −); 0 mM in data set [5] (Reaction 3: Amadorase −, ATP +); 0 mM in data set [5] (Reaction 4: Amadorase −, ATP −).

Regarding `N=C(N)NCCC[C@H](N)C(=O)O` [arginine], the “inhibition of 3DG induced collagen crosslinking (high molecular weight bands on gel)” value in data set [1] (collagen I with 5 mM 3DG plus 10 mM arginine) is recorded as “fewer high molecular bands”.

Take `N[C@@H](CCCCNC[C@H](O)[C@@H](O)[C@@H](O)[C@H](O)CO)C(=O)O` [galactitollysine]: the “Plasma 3-deoxyglucosone reduced” value in data set [6] stood at 50%. For the same molecule, the “urinary or plasma 3DG” value in data set [7] is listed as “can be reduced”.

In the case of `N[C@@H](CCCCNC[C@@H](O)[C@@H](O)[C@H](O)[C@H](O)CO)C(=O)O` [mannitollysine], the “Plasma 3-deoxyglucosone reduced” value in data set [6] amounted to 58%. In addition, in data set [7], the “urinary or plasma 3DG” value is “can be reduced”.

Turning to `CNC[C@H](O)[C@@H](O)[C@H](O)[C@H](O)CO` [meglumine, reference compound], the “urinary or plasma 3DG” value in data set [7] was “can be reduced”.

As to `N[C@@H](CCCCNC[C@H](O)[C@@H](O)[C@H](O)[C@H](O)CO)C(=O)O` [sorbitollysine], the “Plasma 3-deoxyglucosone reduced” value in data set [6] amounted to 40%. The “urinary or plasma 3DG” value in data set [7] is recorded as “can be reduced”.
